This is an account of results in paper PMC6271101, “Antioxidant, 5-Lipoxygenase Inhibitory and Cytotoxic Activities of Compounds Isolated from the Ferula lutea Flowers” (Molecules, 2014).

Where only a bound is given, the exact number is not on record here.

Series [1] is described as follows: DPPH free radical scavenging test. Particulars: mean ± SD of three measurements; read-out: IC50 (µmol/L) DPPH Assay. As for the experimental part:
The antioxidant activity of compounds was assessed according to their DPPH scavenging ability as described by Khlifi et al., [33] with some modifications. Reaction mixtures, containing 0.1 mL of the relevant compounds solution in methanol, with concentrations ranging 3 mg/mL and 0.1 mL of a 0.2 mM DPPH methanolic solution, were added to 96-well microtiter plates and incubated at 25 °C for 30 min. Absorbances were measured at 520 nm, the wavelength of maximum absorbance of DPPH, were recorded as A(sample). A blank experiment was also carried out applying the same procedure to a solution without the test material and the absorbance was recorded as A(blank).
Ascorbic acid was used as a standard. All measurements were performed in triplicate.

For series [2] the following is noted: previously tested; cited from earlier work.
For series [3], the system named is human chronic myelogenous leukemia cell line K562. Details: method as in PMID 22913434. Particulars: read-out: IC50 against K562; cited from earlier work.
Series [4] is described as follows: ABTS radical-scavenging test. Conditions: mean ± SD of three measurements; read-out: IC50 (µmol/L) ABTS+ Assay. The protocol:
The radical scavenging capacity of the samples for the ABTS (2,2′-azinobis-3-ethylbenzothiazoline-6-sulphonate) radical cation was determined as described by Khlifi et al., [33] with some modifications. ABTS was generated by mixing a 7 mM of ABTS at pH 7.4 (5 mM NaH2PO4, 5 mM Na2HPO4 and 154 mM NaCl) with 2.5 mM potassium persulfate (final concentration) followed by storage in the dark at room temperature for 16 h before use. The mixture was diluted with ethanol to give an absorbance of 0.70 ± 0.02 units at 734 nm using spectrophotometer. For each sample, diluted solution (20 μL) was allowed to react with fresh ABTS solution (180 μL), and then the absorbance was measured 6 min after initial mixing. […] The capacity of free radical scavenging IC50 was determined using the same previously used equation for the DPPH method. All measurements were performed in triplicate.

Series [5] in a line: MTT cytotoxicity assay, HCT-116. Conditions: human, HCT-116 colon carcinoma cells; HCT-116, MTT; read-out: Cytotoxic Activity (IC50 µmol/L) HCT-116. It counts as cell-based. The protocol:
(§1) The human cancer cell line was used for cytotoxic assay: (HCT-116, IGROV-1 and OVCAR-3). The cells were grown in RPMI-1640 medium supplemented with 10% faetal calf serum (Gibco, Langley, OK, USA), air and 5% CO2. The isolate was added to a medium containing 1 × 10^6 cells/mL, 2 mM L-glutamine and 50 μg/mL gentamycin, and kept at 37 °C in a fully humidified atmosphere. After 18 h of incubation at 37 °C in 5% CO2 incubator, the tubes were centrifuged at 8000 g for 10 min. The supernatant was decanted, and the pellets taken and washed with 20 mM of phosphate buffered saline solution. Each pellet was dissolved in 100 μL (2 mg/mL) MTT solution in a tube, incubated at 22 °C for 4 h and centrifuged at 8000 g for 10 min. All the pellets were dissolved in 500 μL DMSO and read spectrophotometrically at 500 nm. IC50 was calculated by nonlinear regression analysis. Doxorubicin (HCT116) and tamoxifen (IGROV-1 and OVCAR-3) were used as positive control.
Background: Tetrazolium dyes change colour on reduction, which living cells bring about.

Series [6] is described as follows: MTT cytotoxicity assay, IGROV-1. It counts as cell-based. Particulars: human, IGROV-1 ovary cells; IGROV-1, MTT; read-out: Cytotoxic Activity (IC50 µmol/L) IGROV-1. As for the experimental part: as §1
A short description of series [7]: MTT cytotoxicity assay, OVCAR-3. The series is classed as cell-based. Conditions: human, OVCAR-3 ovary cells; OVCAR-3, MTT; read-out: Cytotoxic Activity (IC50 µmol/L) OVCAR-3. As for the experimental part:
as §1

The target in the next series is T1, 5-lipoxygenase (Glycine max, UniProt P08170).
T1 sequence (P08170 1-839): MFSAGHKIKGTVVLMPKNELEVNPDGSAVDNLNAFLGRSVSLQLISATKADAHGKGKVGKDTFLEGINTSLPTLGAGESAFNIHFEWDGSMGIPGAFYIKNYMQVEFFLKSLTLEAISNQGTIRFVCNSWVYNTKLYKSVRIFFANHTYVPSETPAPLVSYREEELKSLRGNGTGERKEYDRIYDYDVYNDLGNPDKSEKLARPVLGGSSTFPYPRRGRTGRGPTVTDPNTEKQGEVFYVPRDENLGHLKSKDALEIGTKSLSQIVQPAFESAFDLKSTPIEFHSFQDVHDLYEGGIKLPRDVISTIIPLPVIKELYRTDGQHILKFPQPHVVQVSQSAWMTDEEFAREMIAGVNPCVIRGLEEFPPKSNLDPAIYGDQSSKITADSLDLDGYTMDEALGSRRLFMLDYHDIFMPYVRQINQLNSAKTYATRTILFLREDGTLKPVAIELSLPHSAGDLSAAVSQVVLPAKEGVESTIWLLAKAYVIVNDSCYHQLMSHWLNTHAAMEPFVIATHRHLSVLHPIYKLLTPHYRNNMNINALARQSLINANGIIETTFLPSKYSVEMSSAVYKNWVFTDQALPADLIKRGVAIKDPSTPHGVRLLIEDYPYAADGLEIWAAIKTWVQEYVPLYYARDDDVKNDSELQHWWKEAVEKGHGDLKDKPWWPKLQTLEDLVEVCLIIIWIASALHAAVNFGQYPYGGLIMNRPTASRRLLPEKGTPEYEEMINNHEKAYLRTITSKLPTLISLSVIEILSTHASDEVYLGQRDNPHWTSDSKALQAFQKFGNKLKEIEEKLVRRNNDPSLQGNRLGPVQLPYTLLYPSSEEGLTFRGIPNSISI
The experiment in a line: 5-Lipoxygenase inhibitory assay (linoleic acid, 234 nm). The series is classed as biochemical, Soybean. As for the experimental part:
The anti-inflammatory activity activities of the isolates was determined on Soybean lipoxygenase as described by Khlifi et al. with some modifications. 20 µL of each compound was mixed individually with 150 µL sodium phosphate buffer (pH 7.4) containing 20 µL of 5-lipoxygenase and 60 µL of linoleic acid (3.5 mM), yielding a final volume of 250 µL. […] The mixture was incubated at 25 °C for 10 min, and the absorbance was determined at 234 nm. The absorption change with the conversion of linoleic acid to 13-hydroperoxyoctadeca-9,11-dienoate (characterized by the appearance of the conjugated diene at 234 nm) was followed for 10 min at 25 °C. […] All measurements were performed in triplicate.

Take `COc1cc(-c2oc3cc(O)cc(O)c3c(=O)c2O[C@@H]2O[C@H](CO[C@@H]3O[C@@H](C)[C@H](O)[C@@H](O)[C@H]3O)[C@@H](O)[C@H](O)[C@H]2O)ccc1O` [Compound 8, Isorhamnetin-3-O-α-L-rhamnopyranosyl(1→6)-β-D-glucopyranoside,narcissin]: the IC50 was greater than 300 µmol/L in series [1], 800 µM in series [3] and greater than 300 µmol/L in series [4]. Also, in series [2], the “DPPH radical scavenging activity” value is given as “no activity”. In addition, the IC50 at 18 h in series [5], in series [6] and in series [7] was greater than 100 µmol/L throughout. Moreover, the “5-Lipoxygenase Inhibitory (% at 80 µmol/L)” value on 5-lipoxygenase (at 80 µmol/L) was “did not exhibit activities”. At 5-lipoxygenase (read-out: 5-Lipoxygenase Inhibitory (% at 80 µmol/L)), the inhibition at 80 µM turned out to be 0%.
